From PMC12066480, “Optimization of neuron-specific interfering peptides targeting GABAB receptor downregulation for proteolytic stability for conferring neuroprotection in a mouse model of cerebral ischemia” (Frontiers in Pharmacology, 2025)
Ends that are not written are not given here.

Tests used:
[1] = tested on: cultured neuron/glia cells
[2] = tested on: cultured neurons (neuron/glia cultures)
[3] = tested on: cultured neurons (neuron/glia cultures); test: Peptide uptake into individual cultured neurons, colocalization immunocytochemistry; conditions: 1 h
[4] = Proteolytic stability in blood serum, Western blot; conditions: peptide stock 1 μg/μL added 1:5, 37°C, 3 independent experiments and one technical replicate (Figures 3A-C)
Protocol: For testing the resistance of the peptides to proteolytic degradation blood serum was prepared from blood collected from naïve mice decapitated under deep isoflurane anesthesia. The blood samples were allowed to clot at RT for 10–15 min, followed by centrifugation at 2000 g for 10 min and 4°C to separate the serum. The serum was stored at −80°C until used.
For testing, a peptide stock solution of 1 μg/μL was added directly to the serum in a ratio of 1:5 and incubated at 37°C for different times. After incubation, the mixture was diluted 1:4 with PBS and the samples were incubated with 2x Laemmli sample buffer (Bio-Rad) for 1 h at 37°C. The samples were subjected to tricine-sodium dodecyl sulfate-polyacrylamide gel electrophoresis (SDS-PAGE) using 1 mm thick 16% gels modified for the detection of small peptides as described by ([Too et al., 1994]).
Proteins were transferred onto 0.1 μm nitrocellulose membranes, previously coated with a solution of 0.5% gelatine ([Too et al., 1994]), in a semi-dry transfer cell (Trans-Blot SD; Bio-Rad) for 70 min at 10 V. After transfer, the blots were immediately incubated in 4% PFA for 5 min, thoroughly washed and blocked for 1 h in PBS containing 5% non-fat dry milk at room temperature. Thereafter, the blots were incubated with Alexa Fluor 750-streptavidin overnight at 4°C in PBS containing 5% non-fat dry milk. The blots were washed three times for 10 min with TBST and immunoreactivity was detected by the ODYSSEY CLx scanner (LI-COR Biosciences). For quantification of signal intensity, the images were analyzed with the Image Studio software (LI-COR Biosciences).

| Sequence | uptake of truncated RVG peptides (attached to 9R) into cultured neurons, screening [1] | colocalization with GABAB receptors and neuronal marker NeuN [2] | degradation after incubation for up to 72 h in mouse serum [4] | further results |
| --- | --- | --- | --- | --- |
| FTNSRGKRRRRRRRRRR [Figure 2A peptide 5] | retained neuron-specific uptake | selectively taken up by neurons |  |  |
| GTPCDIFTRRRRRRRRR [Figure 2A peptide 4] | retained neuron-specific uptake | selectively taken up by neurons |  | peptide uptake into individual neurons by immunocytochemistry ([3]; 10 μg/mL, normalized to peptide 4, 50 neurons per sequence, two independent experiments (Figure 2B)): considerably more efficiently taken up by neurons than the other peptides tested; cell-type selectivity of uptake (NeuN vs GFAP colocalization) ([3]; NeuN, GFAP, DAPI, 3 independent determinations in triplicates (Figure 2C)): lack of uptake by astrocytes |
| GTPCDIFTRRRRRRRRRFQFTQNQKKEDSKTSTSV [PP2A-Pep] |  |  | did not result in an appreciable degradation |  |
| GTPCDIFTRRRRRRRRRLQDTPEKTTYIK [CHOP-Pep] |  |  | did not result in an appreciable degradation |  |
| GTPCDIFTRRRRRRRRRSETQDTMKTGSSTNNNEEEKSR [CaMKII-Pep] |  |  | did not result in an appreciable degradation |  |
| YTIWMPENPRPGTPCDIFTNSRGKRASNGGGGRRRRRRRRR [Figure 1A peptide 12] |  |  |  | uptake into cultured neuron/glia cells (Figure 1A) [1]: did not affect its uptake into the cultured cells |
| YTIWMPENRRRRRRRRR [Figure 2A peptide 2] | retained neuron-specific uptake | selectively taken up by neurons |  |  |
